Experimental findings from patent publication US5464834A, “N-substituted N'-heterobicyclic piperazines having pharmaceutical activity” (Adir et Compagnie, priority 1992, dated 1995) are described below.

Where only a bound is given, the exact number is not on record here.

Test [1] addresses T1, 5HT1A receptors (Rattus norvegicus, UniProt P19327).
T1 sequence (P19327 1-422): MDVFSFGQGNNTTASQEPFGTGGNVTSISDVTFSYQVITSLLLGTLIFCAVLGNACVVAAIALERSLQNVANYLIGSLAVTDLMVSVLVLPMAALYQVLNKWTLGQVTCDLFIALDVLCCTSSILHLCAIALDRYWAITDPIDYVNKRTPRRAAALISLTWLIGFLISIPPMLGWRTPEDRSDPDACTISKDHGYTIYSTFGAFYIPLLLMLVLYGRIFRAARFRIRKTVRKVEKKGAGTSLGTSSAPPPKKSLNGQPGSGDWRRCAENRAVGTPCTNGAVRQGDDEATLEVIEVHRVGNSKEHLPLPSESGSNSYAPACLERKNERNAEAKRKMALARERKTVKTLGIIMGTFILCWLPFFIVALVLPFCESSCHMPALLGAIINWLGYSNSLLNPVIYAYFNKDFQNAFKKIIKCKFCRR
The test is described as follows: Spontaneous tail flick (STF) test, agonist (alone) and antagonist (vs 8-OH-DPAT). Format: in vivo, rat (male Wistar). Also on record: from tissue; host or cells: whole living male Wistar rats (endogenous receptor). As for the experimental part:
(§1) The tests were carried out using male Wistar rats weighing 200 to 220 g having free access to their food and to their drinking water in standard cages.
(§2) The animals are isolated individually for the tests for hypothermia, corticosterone secretion and flat body posture, or combined in groups of three for the tailflick test.
(§3) The compounds to be studied were administered by the subcutaneous route (s.c.) 60 minutes before the beginning of the test, that is to say 30 minutes before the solvent (agonist responses) or the 8-OH-DPAT (antagonist responses).
(§4) In all of the tests the solvent is used in parallel as a control. The animals were left to rest in their cage during the period between the injections and the evaluation. For the agonist studies, the solvent was administered at 1 ml/kg s.c. 30 minutes before the beginning of the test. For the antagonist studies, doses of 8-OH-DPAT that induce sub-maximal responses were chosen, that is doses of 0.63, 0.16, 0.16 and 0.16 mg/kg s.c. for, respectively, the tail flick test, flat body posture test, corticosterone secretion test and hypothermia test.
The tail flicks were determined on the animals in horizontal opaque plastics cylinders with the tail of the animals hanging freely on the edge of the laboratory work bench. After allowing 5 minutes for adaptation, the number of movements made in 5 minutes was recorded. An STF is defined as being an elevation of the tail to a level higher than that of the axis of the body [Millan M. J. et al., J. Pharmacol. Exp. Ther., 256, 973-982 (1990)].
(§5) In general, after variance analysis, the results are subjected to the Dunett test. The results are taken as significant if p <0.05.
(§6) The doses of the compounds tested are all expressed in base terms. Unless specified otherwise, all of the compounds were dissolved in sterile water (to which if necessary a few drops of lactic acid were added) and administered at a volume of 1 ml/kg s.c.

Test [2] concerns the target T1, 5HT1A receptors. Put plainly: Corticosterone secretion (CS), agonist (alone) and antagonist (vs 8-OH-DPAT). In kind it is in vivo, rat (male Wistar). Also on record: from tissue; host or cells: whole living male Wistar rats (endogenous receptor). Here is the method: as §1, §2, §3, §4
The same animals were used to evaluate the influence of the compounds studied on FBP and on the determination of the plasma concentration of CS. All of the tests were carried out in the morning between 10.30 and 12.300 that is to say when the circadian levels of CS are lowest.
The presence of FBP is defined by a characteristic posture of the animal. That posture is in the ventral decubitus position with the posterior limbs clearly extended. 5 minutes after the observation of FBP, the animals are decapitated and the blood from the trunk is collected in cooled tubes containing 50 μl of a 10% EDTA solution. After centrifugation at 4000 revs/min, the plasma is removed and stored at -30° C. until determination.
The CS was determined by a radio-competitive determination for a plasma protein that binds the CS: transcortine. The latter is obtained from a monkey serum. The separation of the CS-transcortine complexes from the free CS was carried out by means of a solution of dextran and active carbon. The detection limit was 50 pg/tube. The intra- and inter-experiment variations in determination were 5 and 15% respectively [cf Rivet J. M. et al, Eur. J. Pharmacol., 183,634-635 (1990)].
The CS base rates in the plasma never being zero, the following formula was used to calculated the percentage inhibition of plasma CS induced by 8-OH-DPAT: [formula]
as §5, §6

For test [3], the target named is T1, 5HT1A receptors. Put plainly: Body temperature / hypothermia, agonist (alone) and antagonist (vs 8-OH-DPAT). Format: in vivo, rat (male Wistar). Also on record: from tissue; host or cells: whole living male Wistar rats (endogenous receptor). As for the experimental part: as §1, §2, §3, §4
The rats are immobilised and a lubricated digital thermometer (Termistroprobe of Testotherm, Basle, Switzerland) is inserted into the rectum to a depth of 5 cm. 30 seconds after insertion, the temperature is read on a digital scale. The percentage inhibition is calculated using the formula given above.
as §5, §6

Test [4] deals with T1, 5HT1A receptors. Put plainly: In vitro binding test, 5HT1A receptors ([3H]-8-OH-DPAT, hippocampus membranes). Also on record: The hippocampus of the brains of decapitated rats was immediately frozen; from tissue; host or cells: hippocampus membranes of male Wistar rats; species or system rat (male Wistar). The settings on record: rat hippocampus; [3H]-8-OH-DPAT 0.4 nM; 30 min at 25° C; read-out: AFFINITY (pKi) (converted). Here is the method:
as §1
The hippocampus of the brains of decapitated rats was immediately frozen on solid carbon dioxide and then kept at -80° C. until preparation of the membranes. The tissue was homogenised at 4° C. in the appropriate buffer using a Polytron (Brinkman Instruments, Lucerne, Switzerland) and centrifuged at 20,000 revs/min.
Incubation was carried out for 30 minutes at 25° C. Non-specific binding was established by […] of 5HT. The tests were terminated by rapid filtration using a Brandel harvester through glass fibre filters pretreated with 0.1% polyethylene imine.
The IC50 values were determined in accordance with process 8 of Tallarida R. J. and Murray R. B., Manual of Pharmacological calculations with computer programs, Springer Verlag, New York, (1987).
The pKi was calculated in accordance with the following formula: [formula] wherein [L] is the concentration of the hot ligand (^[3] H-8-OH-DPAT, 0.4 nM) and Kd is the apparent dissociation constant determined from the saturation experiments.
The substances studied were dissolved in the incubation buffer.
Binding of 5HT1A receptors

Setting [5] is: agonist test, compound alone s.c., minimum effective dose vs control.

In the case of `c1cc2c(c(N3CCN(CCCc4ccsc4)CC3)c1)OCCO2` [Example 1, 4-(Benzodioxan-5-yl)-1-[3-(thiophen-3-yl)propyl]piperazine], the “STFs MED alone” value in test [1] (setting [5]) is listed as greater than 10.0 mg/kg. Besides, the ED50 in test [1] (rat, sc, antagonist test, s.c., vs 8-OH-DPAT 0.63 mg/kg s.c., read-out: STFs ID50 (95% CL) + DPAT) was 0.12 mg/kg; in test [2] (rat, sc, antagonist test, s.c., vs 8-OH-DPAT 0.16 mg/kg s.c., read-out: CS secretion ID50 (95% CL) + DPAT), 0.43 mg/kg; in test [3] (rat, sc, antagonist test, s.c., vs 8-OH-DPAT 0.16 mg/kg s.c., read-out: HYPOTHERMIA ID50 (95% CL) + DPAT) it was 0.16 mg/kg. Moreover, the “% MPA (% maximum possible antagonism), STFs” value in test [1] (vs 8-OH-DPAT 0.63 mg/kg s.c.) is given as 92%. Also, the “CS secretion MED alone” value in test [2] (setting [5]) is 10.0 mg/kg. Further, the “% MPA (% maximum possible antagonism), CS secretion” value in test [2] (vs 8-OH-DPAT 0.16 mg/kg s.c.) was 100%. The “HYPOTHERMIA MED alone” value in test [3] (setting [5]) is 10.0 mg/kg. The “% MPA (% maximum possible antagonism), HYPOTHERMIA” value in test [3] (vs 8-OH-DPAT 0.16 mg/kg s.c.) was 98%. The Ki in test [4] is 1.74 nM.
